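A five-concentration, 48-hour dose response in 96-well plates underlies each endpoint, interpolated linearly between surrounding concentrations. GI50: concentration for 50% inhibition of growth.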 The source made the active and inactive calls. Cut-off read from the data, not from the text of the source: active = GI50 up to about 1.1 µM and inactive = higher. Bounds are passed on as bounds.

What all share (assay): NCI tumour cell line growth inhibition, 48 h
Experiment [1] relates to ACHN.
The subject of experiment [2] is CCRF-CEM.
Experiment [3] deals with DMS-114.
Experiment [4] deals with EKVX.
Experiment [5] relates to HCT-116.
The subject of experiment [6] is HCT-15.
The subject of experiment [7] is HL-60.
Experiment [8] deals with HOP-62.
The subject of experiment [9] is IGROV-1.
For experiment [10], the system named is K562.
The subject of experiment [11] is KM12.
Experiment [12] has as its system NCI-H23.
Experiment [13] deals with OVCAR-4.
Experiment [14] deals with SF-295.
Experiment [15] relates to SNB-75.
In experiment [16] the test system is SW-620.
The subject of experiment [17] is UO-31.

Consider `CC(=O)Oc1cc2c(=O)oc3c(OC(C)=O)c(OC(C)=O)c(OC(C)=O)c4c(=O)oc(c1OC(C)=O)c2c34`, for which the GI50 was 48.3 µM (inactive) in [1]; 19.2 µM (inactive) in experiment [2]; 21.6 µM (inactive) in experiment [3]; 74 µM (inactive) in [4]; 24 µM (inactive) in experiment [5]; more than 100 µM in experiment [6]. Further, the GI50 is 56 µM (inactive) in experiment [7]; > 100 µM (inactive) in experiment [8]; > 100 µM (inactive) in experiment [9]; 53.5 µM (inactive) in experiment [10]; > 100 µM (inactive) in experiment [11]; > 100 µM (inactive) in [12]. Moreover, the GI50 is 41.9 µM (inactive) in experiment [13]; 20.8 µM (inactive) in experiment [14]; 45.9 µM (inactive) in [15]; 34.5 µM (inactive) in [16]; 97.7 µM (inactive) in [17].

On to `COC1=CC(=O)C2C(C1=O)C(c1ccc(Cl)cc1)[C@@H]2C` (stereo partly drawn), for which the GI50 in experiment [1] was 17.3 µM (inactive); in experiment [2], 29.4 µM (inactive); in [3], 21.5 µM (inactive); in [4] it was 26.3 µM (inactive); in [5], 15.7 µM (inactive); in experiment [6], 17.1 µM. Further, the GI50 in [7] was 22.2 µM (inactive); in experiment [8], 39.1 µM (inactive); in experiment [9], 55.3 µM (inactive); in [10], 28.3 µM (inactive); in experiment [11], 47.2 µM (inactive); in experiment [12], 28.6 µM (inactive). For the same molecule, the GI50 in experiment [13] is 42.4 µM (inactive); in experiment [14], 93.1 µM (inactive); in experiment [15], 17.4 µM (inactive); in experiment [16] it was 27.4 µM (inactive); in experiment [17] it was 19.7 µM (inactive).

As to `C/C(CN1C(=O)c2ccccc2C1=O)=N\NS(C)(=O)=O`, the GI50 was > 100 µM (inactive) in experiment [1]; > 100 µM (inactive) in experiment [2]; > 100 µM (inactive) in experiment [3]; > 100 µM (inactive) in experiment [4]; > 100 µM (inactive) in [5]; more than 100 µM in [6]. The GI50 in experiment [7], in [8], in experiment [9], in experiment [10], in [11] and in experiment [12] was > 100 µM (inactive) throughout. In addition, the GI50 in [13], in experiment [14], in [15], in experiment [16] and in [17] was > 100 µM (inactive) throughout.

`CCO/C=C\C12CCCC1NC(c1ccccc1)(c1ccccc1)O2` (stereo not drawn): the GI50 in experiment [1] is 30.3 µM (inactive); in experiment [2], 21.5 µM (inactive); in experiment [3], 30.6 µM (inactive); in experiment [4], 43.9 µM (inactive); in experiment [5] it was 30.7 µM (inactive); in experiment [7], 18.2 µM (inactive). For the same molecule, the GI50 in experiment [8] is 41.5 µM (inactive); in [9] it was 28 µM (inactive); in experiment [10] it was 20.1 µM (inactive); in [11], 35.7 µM (inactive); in experiment [12], 28.4 µM (inactive); in experiment [13], 35.8 µM (inactive). Further, the GI50 is 32.7 µM (inactive) in experiment [14], 19.5 µM (inactive) in [15], 38.4 µM (inactive) in experiment [16] and 28.8 µM (inactive) in experiment [17].

As for `COC(=O)c1cc(Br)c(Br)n1C`, the GI50 in [1] was > 100 µM (inactive); in [2] it was > 100 µM (inactive); in experiment [3], > 100 µM (inactive); in [4], 42.7 µM (inactive); in [5], > 100 µM (inactive); in experiment [7], > 100 µM (inactive). Besides, the GI50 in [8], in experiment [9], in experiment [10], in experiment [11], in experiment [12] and in experiment [13] was > 100 µM (inactive) in each case. Moreover, the GI50 in experiment [14], in [15], in [16] and in experiment [17] was > 100 µM (inactive) throughout.
